In patent US5916906A, “Compositions comprising nicotinylalanine and an inhibitor of glycine conjugation or vitamin B6” (priority 1997, dated 1999):

Assays:
[1] = Hematocrit of LP-BM5 infected mice (hematopoietic toxicity); assay type: in vivo, C57BL/6 mice; details: for Mean Hematocrit: virus-positive, NAL 400 mg/kg, ASA 20 mg/kg, AZT printed 1 mg/kg
Description: (§1) Disease progression was monitored by measuring serum IgM levels by ELISA on all animals at monthly intervals during the course of disease. Three mice per group were randomly selected and sacrificed at monthly intervals (end of month one through four) of the study. Disease scores for each animal were recorded weekly based upon palpation of lymph nodes and spleen. Complete gross necropsies were performed on these euthanized animals and the ratio of recorded spleen to body weights was an additional indicator of diseases progression. […] Infection was quantified by ecotropic virus XC plaque assays of spleens removed from the interim sacrificed animals. The study was to be terminated when mice were either dead or disease scores were +4 in more than 50% of the vehicle-treated MAIDS controls (Group 1), which occurred at 19 weeks post-inoculation of the virus pool. However, as the remaining mice in Group 1 were slow to progress towards more severe disease (FIG. 5) or death (FIG. 6), the study was extended until a termination date of 28 weeks post-inoculation.
Mice were maintained through the fifth month post virus inoculation until

[2] = Plasma nicotinamide levels in LP-BM5 infected mice (HPLC); assay type: in vivo, C57BL/6 mice; details: NAL 400 mg/kg, ASA 20 mg/kg; for Ratio of plasma nicotinamide mean to placebo (PBS Control, Group 1): AZT as in Table 4; for Mean Plasma Nicotinamide Level: virus-positive, ~24 h after last treatment, AZT printed 1 mg/kg, mean ± SD
Description: Mice were sacrificed on Tuesdays at monthly intervals after
inoculation, approximately 24 hours after their last treatment.
At time of sacrifice, blood was collected by cardiac puncture and stored
Results are expressed as mean concentrations ± standard deviation in

[3] = Toxicity observations and necropsy in LP-BM5 infected mice; assay type: in vivo, C57BL/6 mice
Description: as §1

LP-BM5 MuLV Retrovirus = details: cited from earlier work
[4] = within the first month of dosing

Cc1cn([C@H]2C[C@H](N=[N+]=[N-])[C@@H](CO)O2)c(=O)[nH]c1=O [AZT, 3'azido-3'deoxythymidine, reference compound]
Mean Hematocrit ([1]; Month 1 (10 bled)): 41.7 ± 4.0%
Mean Hematocrit ([1]; Month 2 (10 bled)): 42.7 ± 2.4%
Mean Hematocrit ([1]; Month 3 (7 bled)): 41.9 ± 1.7%
Mean Hematocrit ([1]; Month 4 (11 bled)): 42.6 ± 3.0%
Mean hematocrit over the four months sampled ([1]; NAL plus AZT (Group 5), AZT alone (Group 7)): ~42.6%
Hematopoietic toxicity ([1]; one-month interim assessment, AZT in drinking water): hematopoietic toxicity was already manifest
Ratio of plasma nicotinamide mean to placebo (PBS Control, Group 1) ([2]; Month 1): 1.59
Mean Plasma Nicotinamide Level ([2]; Month 1): 5.1 ± 0.6 nmol/mL
Ratio of plasma nicotinamide mean to placebo (PBS Control, Group 1) ([2]; Month 2): 1.54
Mean Plasma Nicotinamide Level ([2]; Month 2): 6.0 ± 0.4 nmol/mL
Ratio of plasma nicotinamide mean to placebo (PBS Control, Group 1) ([2]; Month 3): 2.26
Mean Plasma Nicotinamide Level ([2]; Month 3): 5.2 ± 3.0 nmol/mL
Mean Plasma Nicotinamide Level ([2]; Month 4): 5.8 ± 0.4 nmol/mL
Deaths prior to termination of the study ([3]; 28-week study): one mouse
Necropsy finding in mice that died ([3]; Groups 4 and 7): distended food filled small and large intestines
Side-effect: melaninization [3, 4]: melaninization of extremities, tail, and ears
Side-effect: red-blood cell [3, 4]: red-blood cell toxicities
Disease progression (in words) (LP-BM5 MuLV Retrovirus; AZT 0.1 mg/kg (Eiseman 1991)): still delayed disease progression
Control of LP-BM5 disease (in words) (LP-BM5 MuLV Retrovirus; AZT 0.5 mg/kg in drinking water, chronic (Eiseman 1991)): effective in controlling LP-BM5 disease
